# Test results published in article PMC9501899 (Journal of the American Chemical Society, 2022).
# Test system: LRRK2
# Assay: Western blot screening of PROTACs in WT and G2019S LRRK2 MEFs
# Format: cell-based, mouse
# Procedure: These PROTACs were then biologically evaluated in mouse embryonic fibroblasts (MEFs) by Western blotting. Briefly, MEFs were treated with compounds at 33 nM and 1 μM for 4 h (Figure 2) and 24 h (Figure S2) separately, and the intracellular level of LRRK2, phosphorylated LRRK2 at Ser935, and phosphorylated Rab10 (pRab10) at Thr73 was determined. Rab10[5],[49] is one of the bona fide substrates of LRRK2, whose phosphorylation status is directly affected by the LRRK2 kinase activity and protein level. Phosphorylation of LRRK2 at Ser935 is a well-studied biomarker site used to assess the efficacy of type 1 LRRK2 inhibitors.[30]
# Primary MEFs were generated as described in a previous study.[80] Briefly, the uterine horn was collected from adult female mice at day E12.5 and transferred to a 10 cm tissue culture dish containing cold PBS. Two forceps were used to tear the yolk sacs to isolate each embryo. Forceps were cleaned thoroughly with 70% ethanol between each embryo isolation. The embryos were culled, and a tissue piece was collected in a polymerase chain reaction (PCR) tube for genotyping. The red tissue of the embryo was removed, and the remainder was minced with a scalpel blade and incubated with a 7.5 mL trypsin–ethylenediaminetetraacetic acid (EDTA) solution for 10 min in a 37 °C, 5% CO2 tissue culture incubator. The dish was removed from the incubator and checked under a light microscope for single cells. Complete media (7.5 mL) was added to the trypsinized cells, and the cell suspension was transferred to a 15 mL Falcon tube and centrifuged at 1200 rpm for 5 min at room temperature. The trypsin was aspirated, the cell pellet was resuspended in a 5 mL fresh complete media, and the cell suspension was plated in a 60 mm tissue culture dish and incubated in a 37 °C, 5% CO2 tissue culture incubator. The MEFs at this stage were considered as passage 0 and were passaged and expanded for experimental use once the genotype was confirmed by allelic sequencing and immunoblotting. MEFs were cultured in Dulbecco’s modified Eagle’s medium (DMEM) containing 10% (v/v) fetal bovine serum (FBS), 2 mM L-glutamine, 100 U/mL penicillin, and 100 μg/mL streptomycin supplemented with 1× nonessential amino acids and 1 mM sodium pyruvate.
# Culturing and passaging of adherent cell lines were carried out using an aseptic technique in CL1 or CL2 (for PBMC isolation) biological safety cabinets. All cells were incubated in a 37 °C incubator with 5% CO2. Cell lines were regularly tested for mycoplasma contamination. For Western blot assay, the cells were seeded in six-well plates.
compound,measurement,setting,value
CNc1nc(Nc2ccc(C(=O)N3CCN(CCOCCOCCSC(C)(C)[C@H](NC(=O)C4(F)CC4)C(=O)N4C[C@H](O)C[C@H]4C(=O)NCc4ccc(-c5scnc5C)cc4)CC3)cc2OC)ncc1Cl [SD75],degradation of LRRK2,0.033 µM,< 40%
same,degradation of LRRK2 (in words),"33 nM/4 h, WT and G2019S LRRK2 MEFs",little to no degradation
